Values of other authors, collected in US20240264148A1, “SYSTEM AND METHOD OF IDENTIFYING BIOMARKERS FOR CHEMO-RESISTANCE IN CANCER AND IDENTIFYING TARGETS THAT CAN REVERSE CHEMO-RESISTANCE IN CANCER” (OROC, priority 2019, published 2024).

Test system: recurrent ovarian cancer
Details: patients

Which safety and tolerability does the source give for Cc1nc(Nc2ncc(C(=O)Nc3c(C)cccc3Cl)s2)cc(N2CCN(CCO)CC2)n1 [Dasatinib] here?
The safety and tolerability was “safe to use as a drug with good tolerability”.
